Residues, ends and D or L forms follow the SMILES beside them. *: point of attachment. Cbz = O=C(OCc1ccccc1)*; CH2F = FC*
Assays:
Format in all cases: cell-based, human
[1] = system: p21; experiment: p21 expression by fluorescence microscopy and immunoblot; conditions: HCT116 treated with XR alone or GdBN+XR
Experimental: (§1) HCT116 cells were seeded in 6-well plates and incubated at 37° C. during 1 hour with indicated concentrations of GdBN. Then, cells were irradiated with X-ray irradiator (1 Gy/min, 200 keV, 15 mA, 2 mm copper thickness, X-RAD 320, Precision X-Ray) or with gamma-ray irradiator (IBL-637, Cs^137, 1 Gy/min, gamma CIS-BioInternational, IBA, Saclay, France). Cells were harvested at indicated time points after irradiation for subsequent experiments. Cellular cannibalism was determined as previously described^13. […] Cells are then co-cultured for the indicated time, in presence of the pharmacological inhibitor of ROCK, Y27632 (30 μM, TOCRIS) or the pan-caspase inhibitor, zVAD-fmk (100 μM, Calbiochem). […] Cells were counterstained with Hoechst 33342 (Invitrogen) and analyzed by fluorescent confocal microscopy on a Zeiss LSM510 or by fluorescent microscopy on a LEICA DMi8 using a 63× objective. […] Cytofluorometric determinations were carried out on Guava EasyCyte (Millipore EMD) and data were analyzed by means with Incyte software (Millipore). Cell cycle distributions were assessed with 10 μg/ml of Hoechst 33342 (Invitrogen), as previously described^14. Cell fluorescence was quantified using LSR II™ flow cytometer (Becton-Dickinson). Fluorescence histograms were analyzed with Kaluza software version 1.5. […]

[2] = system: HCT116 cells; experiment: Cellular cannibalism (cell engulfment) in CMTMR/CMFDA co-culture, confocal microscopy
Experimental: as §1

[3] = system: HCT116 cells; experiment: Engulfed (target) cell degradation: chromatin condensation and nuclear fragmentation by fluorescence microscopy; conditions: 100 μM Z-VAD-fmk; XR or GdBN+XR
Experimental: Cellular cannibalism was determined as previously described^13. Briefly, treated cells were stained with 10 μM of 5-(and-6)-(((4-Chloromethyl)Benzoyl)Amino)Tetramethylrhodamine (Cell Tracker Orange CMTMR, Invitrogen) and untreated cells were stained with 10 μM of 5-chloromethylfluorescein diacetate (Cell tracker Green CMFDA, Invitrogen). Cells are then co-cultured for the indicated time, in presence of the pharmacological inhibitor of ROCK, Y27632 (30 μM, TOCRIS) or the pan-caspase inhibitor, zVAD-fmk (100 μM, Calbiochem). […] Cells were counterstained with Hoechst 33342 (Invitrogen) and analyzed by fluorescent confocal microscopy on a Zeiss LSM510 or by fluorescent microscopy on a LEICA DMi8 using a 63× objective. […] Cytofluorometric determinations were carried out on Guava EasyCyte (Millipore EMD) and data were analyzed by means with Incyte software (Millipore). Cell cycle distributions were assessed with 10 μg/ml of Hoechst 33342 (Invitrogen), as previously described^14. Cell fluorescence was quantified using LSR II™ flow cytometer (Becton-Dickinson). Fluorescence histograms were analyzed with Kaluza software version 1.5. […]

[4] = system: ROCK1; experiment: ROCK1 activation by immunoblot of MLC2 serine 19 phosphorylation (MLC2S19*); conditions: 30 μM Y27632, 24 hours; XR- or GdBN+XR-treated HCT116
Experimental: Total cell lysates were prepared in lysis buffer (0,1% NP40 ; 200 mM HEPES ; 100 mM KCl; 1 mM EDTA; 1% Glycerol final concentration) supplemented with proteases and phosphatases inhibitors cocktail (EDTA-free inhibitors, Roche-diagnostics, Meylan, France). Protein extracts were quantified using the Bradford assay (Bio-Rad Laboratories, Hercules, Calif., USA). Protein extracts (20-40 μg) were run onto 4-12% NuPAGE Bis-tris gel (Invitrogen) and transferred onto nitrocellulose membrane at 4° C.

O=C(O)c1ccc(-c2c3nc(c(-c4ccc(C(=O)O)cc4)c4ccc([n-]4)c(-c4ccc(C(=O)O)cc4)c4nc(c(-c5ccc(C(=O)O)cc5)c5ccc2[n-]5)C=C4)C=C3)cc1.[Mn+3] [MnTBAP, Manganese (III)-tetrakis(4-benzoic acid) porphyrin] was tested, and the “effect on cellular senescence (p21 expression, immunoblot)” value ([1]; 10 μM MnTBAP) was “reduced the cellular senescence”.

CC(=O)N[C@@H](CS)C(=O)O [NAC, N-acetylcysteine] was tested, and the “effect on cellular senescence (p21 expression, immunoblot)” value ([1]; 100 μM NAC) was “reduced the cellular senescence”.

For COC(=O)C[C@H](NC(=O)[C@H](C)NC(=O)[C@@H](NC(=O)OCc1ccccc1)C(C)C)C(=O)CF [Z-VAD-fmk, benzyloxycarboxyl-Val-Ala-Asp (OMe) fluoromethylketone] (Cbz-Val-Ala-Asp(OMe)-CH2F), the “effect on cellular engulfment” value ([2]; 100 μM Z-VAD-fmk, after XR or GdBN+XR, 24 h culture) was “not inhibited” and the “effect on target cell degradation” value [3] was “failed to repress target cell degradation”.

For C[C@@H](N)[C@H]1CC[C@H](C(=O)Nc2ccncc2)CC1 [Y27632], the “effect on cellular cannibalism” value ([2]; 30 μM Y27632, after 6 Gy alone and after 6 Gy with 1.2 mM GdBN, 24 hours co-culture) was “inhibited the cellular cannibalism” and the “inhibition of ROCK1 (MLC2S19* immunoblot)” value [4] was “inhibition of ROCK1”.
